In publication PMC7857580, “Substitutional landscape of a split fluorescent protein fragment using high-density peptide microarrays” (PLoS ONE, 2021):
Ends that are not written are not given here.

The sequences below were run against LOO10-GFP (Aequorea victoria, UniProt P42212, S30R/Y39N/F64L/S65T/F99S/N105T/Y145F/M153T/V163A/I171V, form not given). Settings: read-out: Kd (dissociation constant between s10 peptide and LOO10-GFP); 50 nM LOO10-GFP, 0-2500 nM peptide, assay buffer pH 8, overnight 4°C, read at 25°C; 390ex/506em (WT, H199Y) or 495ex/520em (T203Y, H199Y/T203Y); quadratic fit; 3 independent measurements.
Format: binding
Experimental: Fluorescence of each sample was measured at 390/506 nm for T203 variants and at 495/520 nm for Y203 variants, at 25°C, excitation slit 12 nm, emission slit 20 nm and 10s integration time. The affinity experiments were performed in 3 independent replicas for each peptide variant. […] All fits were performed in OriginPro 2017.

Sequence of LOO10-GFP (P42212 whole entry S30R/Y39N/F64L/S65T/F99S/N105T/Y145F/M153T/V163A/I171V, form open): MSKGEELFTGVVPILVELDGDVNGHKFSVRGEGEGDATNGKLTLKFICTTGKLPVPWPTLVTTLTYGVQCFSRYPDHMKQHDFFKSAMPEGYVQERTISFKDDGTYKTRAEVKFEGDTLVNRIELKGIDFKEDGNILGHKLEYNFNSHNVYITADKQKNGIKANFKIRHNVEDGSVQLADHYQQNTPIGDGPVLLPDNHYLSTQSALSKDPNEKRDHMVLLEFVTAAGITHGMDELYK

Row | Sequence | Kd [nM]
1 | NYYLSYQTVLS [H199Y/T203Y] | 32.6 ± 6.3
2 | NYYLSTQTVLS [H199Y] | 53.4 ± 0.4
3 | NHYLSYQTVLS [T203Y] | 152 ± 47
4 | NHYLSTQTVLS [WT] | 280 ± 83
